Data taken from patent US4820821A, “Novel pyridazinone-imines and their physiologically tolerated addition salts with acids, their preparation and therapeutic agents containing these compounds” (BASF Aktiengesellschaft, priority 1981, dated 1989).
Where a name gives a salt, the structure may show the parent alone.

System: reserpine-induced hypothermia
Assay: Antidepressive action: reserpine antagonism, inhibition of reserpine-induced hypothermia of the mouse
Type: in vivo, male Swiss mice
Details: Mus musculus; Table 1; oral administration 60 min before reserpine; dose based on the base; read-out: ED 50% (dose which inhibits the reserpine-induced hypothermia of the mouse by 50%)
Protocol: Antidepressants effect dose-dependent inhibition of this hypotherma. The test substances are administered orally 60 minutes before the administration of reserpine.
The dose which effects 50% inhibition of the reserpine-induced hypothermia is determined, as the ED 50%, from the linear regression between log dose (mg/kg) and relative reduction in hypothermia (Δ%).

Row | Structure (SMILES) | ED50
1 | COc1cc(=NC(=O)c2ccc(Cl)cc2)cnn1-c1ccccc1 [Example 66] | 1.8 mg/kg
2 | COc1cc(=NC(=O)c2ccc(Cl)cc2Cl)cnn1-c1ccccc1 [Example 68] | 0.95 mg/kg
3 | CCOC(=O)N=c1cnn(-c2ccccc2)c(OC)c1 [Example 69] | 4.86 mg/kg
4 | CCCCOC(=O)N=c1cnn(-c2ccccc2)c(OC)c1 [Example 71] | 0.76 mg/kg
5 | C=CCOC(=O)N=c1cnn(-c2ccccc2)c(OC)c1 [Example 72] | 1.47 mg/kg
6 | CCSC(=O)N=c1cnn(-c2ccccc2)c(OC)c1 [Example 73] | 1.23 mg/kg
7 | COc1cc(=NC(=O)NCc2ccccc2)cnn1-c1ccccc1 [Example 74] | 8.45 mg/kg
8 | COc1cc(=NC(=O)c2cccc(C(F)(F)F)c2)cnn1-c1ccccc1 [Example 77] | 3.4 mg/kg
9 | COc1cc(=NC(=O)c2ccc(C)cc2)cnn1-c1ccccc1 [Example 78] | 0.73 mg/kg
10 | COc1cc(=NC(=O)c2ccc(F)cc2)cnn1-c1ccccc1 [Example 79] | 1.14 mg/kg

Same assay, conditions: Mus musculus; Table 2; oral administration; dose based on the base; read-out: ED 50% (dose which inhibits the reserpine-induced hypothermia of the mouse by 50%)

Row | Structure (SMILES) | ED50
11 | O=C(N=c1ccn(-c2ccccc2)nc1)Oc1ccccc1 [Example 30, 1,4-dihydro-4-(phenoxycarbonyl)-imino-1-phenylpyridazine hydrochloride] | 4.1 mg/kg
12 | COc1cc(=NC(=O)Oc2ccccc2)cnn1-c1ccccc1 [Example 58, 1,4-dihydro-6-methoxy-4-(phenoxycarbonyl)-imino-1-phenylpyridazine] | 5.62 mg/kg
13 | CCOc1cc(=NC(=O)c2ccccc2Cl)cnn1-c1ccccc1 [Example 65] | > 31.6 mg/kg

Same assay, conditions: Table 1; amezinium = 1.00; oral

Row | Structure (SMILES) | R.A. (relative activity), reserpine antagonism
14 | COc1cc(=NC(=O)c2ccc(Cl)cc2)cnn1-c1ccccc1 [Example 66] | 0.41
15 | COc1cc(=NC(=O)c2ccc(Cl)cc2Cl)cnn1-c1ccccc1 [Example 68] | 0.77
16 | CCOC(=O)N=c1cnn(-c2ccccc2)c(OC)c1 [Example 69] | 0.15
17 | CCCCOC(=O)N=c1cnn(-c2ccccc2)c(OC)c1 [Example 71] | 0.96
18 | C=CCOC(=O)N=c1cnn(-c2ccccc2)c(OC)c1 [Example 72] | 0.50
19 | CCSC(=O)N=c1cnn(-c2ccccc2)c(OC)c1 [Example 73] | 0.60
20 | COc1cc(=NC(=O)NCc2ccccc2)cnn1-c1ccccc1 [Example 74] | 0.09
21 | COc1cc(=NC(=O)c2cccc(C(F)(F)F)c2)cnn1-c1ccccc1 [Example 77] | 0.22
22 | COc1cc(=NC(=O)c2ccc(C)cc2)cnn1-c1ccccc1 [Example 78] | 1.00
23 | COc1cc(=NC(=O)c2ccc(F)cc2)cnn1-c1ccccc1 [Example 79] | 0.64

Same assay, conditions: Table 2; amezinium = 1.00; oral

Row | Structure (SMILES) | R.A. (relative activity), reserpine antagonism
24 | O=C(N=c1ccn(-c2ccccc2)nc1)Oc1ccccc1 [Example 30, 1,4-dihydro-4-(phenoxycarbonyl)-imino-1-phenylpyridazine hydrochloride] | 0.18
25 | COc1cc(=NC(=O)Oc2ccccc2)cnn1-c1ccccc1 [Example 58, 1,4-dihydro-6-methoxy-4-(phenoxycarbonyl)-imino-1-phenylpyridazine] | 0.13
26 | CCOc1cc(=NC(=O)c2ccccc2Cl)cnn1-c1ccccc1 [Example 65] | < 0.02

System: blood pressure
Assay: Effect on the blood pressure: hypertensive action, pithed rat
Type: in vivo, male Sprague-Dawley rats
Details: Rattus norvegicus, ip; Table 1; i.p. administration; dose based on the base; read-out: ED 20% hypertensive action (dose which increases the blood pressure of the pithed rat by 20%)
Protocol: The measurement of the blood pressure in the carotid artery was carried out by means of Statham transducers. The substance was administered in the jugular vein (as an aqueous solution, 1 ml/kg) or intraperitoneally (as a tragacanth suspension, 2 ml/kg). The ED 20% is determined as the dose which increases the blood pressure by 20%.

Row | Structure (SMILES) | ED20
27 | COc1cc(=NC(=O)c2ccc(Cl)cc2)cnn1-c1ccccc1 [Example 66] | > 10 mg/kg
28 | COc1cc(=NC(=O)c2ccc(Cl)cc2Cl)cnn1-c1ccccc1 [Example 68] | > 21.5 mg/kg
29 | CCSC(=O)N=c1cnn(-c2ccccc2)c(OC)c1 [Example 73] | > 10 mg/kg
30 | COc1cc(=NC(=O)c2cccc(C(F)(F)F)c2)cnn1-c1ccccc1 [Example 77] | 3.16 mg/kg
31 | COc1cc(=NC(=O)c2ccc(C)cc2)cnn1-c1ccccc1 [Example 78] | 10 mg/kg
32 | COc1cc(=NC(=O)c2ccc(F)cc2)cnn1-c1ccccc1 [Example 79] | 10 mg/kg

Same assay, conditions: Rattus norvegicus, iv; Table 1; i.v. administration; dose based on the base; read-out: ED 20% hypertensive action (dose which increases the blood pressure of the pithed rat by 20%)

Row | Structure (SMILES) | ED20
33 | CCOC(=O)N=c1cnn(-c2ccccc2)c(OC)c1 [Example 69] | 2.15 mg/kg
34 | CCCCOC(=O)N=c1cnn(-c2ccccc2)c(OC)c1 [Example 71] | 0.464 mg/kg
35 | C=CCOC(=O)N=c1cnn(-c2ccccc2)c(OC)c1 [Example 72] | 0.464 mg/kg
36 | COc1cc(=NC(=O)NCc2ccccc2)cnn1-c1ccccc1 [Example 74] | 4.64 mg/kg

Same assay, conditions: Rattus norvegicus; Table 2; route not given; dose based on the base; read-out: ED 20% hypertensive action (dose which increases the blood pressure of the pithed rat by 20%)

Row | Structure (SMILES) | ED20
37 | O=C(N=c1ccn(-c2ccccc2)nc1)Oc1ccccc1 [Example 30, 1,4-dihydro-4-(phenoxycarbonyl)-imino-1-phenylpyridazine hydrochloride] | 0.034 mg/kg
38 | COc1cc(=NC(=O)Oc2ccccc2)cnn1-c1ccccc1 [Example 58, 1,4-dihydro-6-methoxy-4-(phenoxycarbonyl)-imino-1-phenylpyridazine] | 0.1 mg/kg
39 | CCOc1cc(=NC(=O)c2ccccc2Cl)cnn1-c1ccccc1 [Example 65] | 0.53 mg/kg

Same assay, conditions: Table 1; i.p. administration; amezinium = 1.00

Row | Structure (SMILES) | R.A. (relative activity), hypertensive action
40 | COc1cc(=NC(=O)c2ccc(Cl)cc2)cnn1-c1ccccc1 [Example 66] | < 0.04
41 | COc1cc(=NC(=O)c2ccc(Cl)cc2Cl)cnn1-c1ccccc1 [Example 68] | < 0.02
42 | CCSC(=O)N=c1cnn(-c2ccccc2)c(OC)c1 [Example 73] | < 0.04
43 | COc1cc(=NC(=O)c2cccc(C(F)(F)F)c2)cnn1-c1ccccc1 [Example 77] | 0.12
44 | COc1cc(=NC(=O)c2ccc(C)cc2)cnn1-c1ccccc1 [Example 78] | 0.04
45 | COc1cc(=NC(=O)c2ccc(F)cc2)cnn1-c1ccccc1 [Example 79] | 0.04

Same assay, conditions: Table 1; i.v. administration; amezinium = 1.00

Row | Structure (SMILES) | R.A. (relative activity), hypertensive action
46 | CCOC(=O)N=c1cnn(-c2ccccc2)c(OC)c1 [Example 69] | 0.02
47 | CCCCOC(=O)N=c1cnn(-c2ccccc2)c(OC)c1 [Example 71] | 0.11
48 | C=CCOC(=O)N=c1cnn(-c2ccccc2)c(OC)c1 [Example 72] | 0.11
49 | COc1cc(=NC(=O)NCc2ccccc2)cnn1-c1ccccc1 [Example 74] | 0.01

Same assay, conditions: Table 2; amezinium = 1.00

Row | Structure (SMILES) | R.A. (relative activity), hypertensive action
50 | O=C(N=c1ccn(-c2ccccc2)nc1)Oc1ccccc1 [Example 30, 1,4-dihydro-4-(phenoxycarbonyl)-imino-1-phenylpyridazine hydrochloride] | 1.47
51 | COc1cc(=NC(=O)Oc2ccccc2)cnn1-c1ccccc1 [Example 58, 1,4-dihydro-6-methoxy-4-(phenoxycarbonyl)-imino-1-phenylpyridazine] | 0.50
52 | CCOc1cc(=NC(=O)c2ccccc2Cl)cnn1-c1ccccc1 [Example 65] | 0.09

System: reserpine-induced hypothermia / blood pressure
Assay: Quotient ED 50% antidepressive action / ED 20% hypertensive action;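 as to Q Increase: larger quotient means more selective hypertensive action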
Type: in vivo, mouse / rat
Details: Table 2; route of hypertensive test not given
Excerpt: This is evident from the fact that the quotient defined above differs wtih respect to the comparative compounds. […] This arises, inter alia, from the fact that the hypertensive ED 20 constitutes the denominator of the quotient. It is possible that the unforeseeable selective direction of action is attributable to the special substitution,in accordance with the invention, at the 4-imino group.

Row | Structure (SMILES) | Q Increase
53 | O=C(N=c1ccn(-c2ccccc2)nc1)Oc1ccccc1 [Example 30, 1,4-dihydro-4-(phenoxycarbonyl)-imino-1-phenylpyridazine hydrochloride] | 120.59
54 | COc1cc(=NC(=O)Oc2ccccc2)cnn1-c1ccccc1 [Example 58, 1,4-dihydro-6-methoxy-4-(phenoxycarbonyl)-imino-1-phenylpyridazine] | 56.20
55 | CCOc1cc(=NC(=O)c2ccccc2Cl)cnn1-c1ccccc1 [Example 65] | > 59.62

Same assay, conditions: compounds of Table 2

Row | Structure (SMILES) | factor by which the hypertensive dose (ED 20%) is smaller than the antidepressive effective dose (ED 50%)
56 | O=C(N=c1ccn(-c2ccccc2)nc1)Oc1ccccc1 [Example 30, 1,4-dihydro-4-(phenoxycarbonyl)-imino-1-phenylpyridazine hydrochloride] | 120

Same assay, conditions: hypertensive test i.p.

Row | Structure (SMILES) | Q (quotient ED 50% antidepressive action/ED 20% hypertensive action)
57 | COc1cc(=NC(=O)c2ccc(Cl)cc2)cnn1-c1ccccc1 [Example 66] | < 0.18
58 | COc1cc(=NC(=O)c2ccc(Cl)cc2Cl)cnn1-c1ccccc1 [Example 68] | < 0.04
59 | CCSC(=O)N=c1cnn(-c2ccccc2)c(OC)c1 [Example 73] | < 0.12
60 | COc1cc(=NC(=O)c2cccc(C(F)(F)F)c2)cnn1-c1ccccc1 [Example 77] | 1.08
61 | COc1cc(=NC(=O)c2ccc(C)cc2)cnn1-c1ccccc1 [Example 78] | 0.07
62 | COc1cc(=NC(=O)c2ccc(F)cc2)cnn1-c1ccccc1 [Example 79] | 0.11

Same assay, conditions: hypertensive test i.v.

Row | Structure (SMILES) | Q (quotient ED 50% antidepressive action/ED 20% hypertensive action)
63 | CCOC(=O)N=c1cnn(-c2ccccc2)c(OC)c1 [Example 69] | 2.26
64 | CCCCOC(=O)N=c1cnn(-c2ccccc2)c(OC)c1 [Example 71] | 1.64
65 | C=CCOC(=O)N=c1cnn(-c2ccccc2)c(OC)c1 [Example 72] | 3.17
66 | COc1cc(=NC(=O)NCc2ccccc2)cnn1-c1ccccc1 [Example 74] | 1.82
